Laboratory results published in patent publication US8071506B2, “Synergistic herbicidal composition containing florasulam for weed control in turf” (Dow AgroSciences LLC, priority 2009, dated 2011).

How the values were obtained:
Test in all cases: Field study of weed control in established turfgrass, percent control from visual weed cover
White Clover (TRFRE) = type: in vivo, Trifolium repens; settings: for Observed percent control: Florasulam GR 15 g ai/ha
Method: (§1) Field studies were conducted in established turfgrass sites containing a natural population of target broadleaf weeds. Replicated trials, containing a minimum of three replications and having individual plots ranging in size from 25 to 50 ft. sq, were initiated in the early spring with turf and weeds still in dormancy or just beginning active growth. Studies containing two components (florasulam and dithiopyr or pendimethalin) were timed to coincide with typical preemergent crabgrass (Digitaria sp.) timing at the study location. Studies containing three components (florasulam, dithiopyr or pendimethalin, Trimec (2,4-D+dicamba+MCPP-p) or Scotts Plus 2 (2,4-D+MCPP-p) were timed as previous for the florasulam and dithiopyr or pendimethalin components followed by an application of Trimec or Scotts Plus 2 at peak dandelion bloom which occurs approximately six weeks after a typical preemergent application. Granule treatments were uniformly applied to individual plots using a common hand-shaker or shaker table method. Liquid applications were applied with a CO2 backpack sprayer calibrated to deliver 40 to 100 GPA at 40 to 60 PSI. Applications were generally made in the early morning when dew was present. Natural rainfall and supplemental irrigation were used to maintain healthy turf and active weed growth throughout the study period. Weed control evaluations were made by visually assessing percent weed cover of each weed species in each plot at the initiation of the study and at each evaluation interval, converting to percent control using the following formula: (1−(B/A))*100
(§2) A=percent weed cover at study initiation
(§3) B=percent weed at a specific evaluation interval after application
(§4) Using this method, control ranges occur between 0 and 100 percent where 0 corresponds to no control and 100 corresponds to complete kill. Percent cover of each weed species was made at approximately 2, 4 and 8 weeks after treatment.
(§5) The following equation was used to calculate the expected activity of mixtures containing two active ingredients, A and B: Expected=A+B−(A×B/100)
(§6) A=observed efficacy of active component A at the same concentration as used in the mixture.
(§7) B=observed efficacy of active component B at the same concentration as used in the mixture.
(§8) The following equation was used to calculate the expected activity of mixtures containing three active ingredients, A and B and C: Expected=A+B+C−((A×B)+(A×C)+(B×C)/100)+(A×B×C/10,000)
(§9) C=observed efficacy of active component C at the same concentration as used in the mixture.

Dandelion (TAROF) = type: in vivo, Taraxacum officinale
Method: as §1, §2, §3, §4, §5, §6, §7, §8, §9

[1] = test system: Buckhorn Plantain (PLALA); type: in vivo, Plantago lanceolata; settings: 27 DAT in turf; Pendimethalin GR 2300 g ai/ha, Florasulam GR 15 g ai/ha
Method: as §1, with “Weed control evaluations were made by visually assessing percent weed cover of each weed species in each plot at the initiation of the study and at each evaluation interval, converting to percent control using the following formula: (1−(B/A))*100” left out

[2] = 28 DAT in turf, Dithiopyr GR 575 g ai/ha
[3] = 36 DAT in turf, Dithiopyr GR 575 g ai/ha
[4] = 62 DAT in turf, Dithiopyr GR 575 g ai/ha
[5] = 36 DAT in turf, Dithiopyr GR 575 g ai/ha, Florasulam GR 15 g ai/ha
[6] = 56 DAT in turf, Dithiopyr GR 575 g ai/ha, Florasulam GR 15 g ai/ha
[7] = 57 DAT in turf, Dithiopyr GR 575 g ai/ha, Florasulam GR 15 g ai/ha, Trimec EC 4 Pt/A
[8] = 58 DAT in turf, Dithiopyr 2EW 575 g ai/ha, Florasulam SC 15 g ai/ha
[9] = 59 DAT in turf, Dithiopyr GR 575 g ai/ha, Florasulam GR 15 g ai/ha, Trimec EC 4 Pt/A
[10] = 64 DAT in turf, Dithiopyr GR 575 g ai/ha, Florasulam GR 15 g ai/ha, Trimec EC 4 Pt/A
[11] = 91 DAT in turf, Dithiopyr GR 575 g ai/ha, Florasulam GR 15 g ai/ha
[12] = 55 DAT in turf, Pendimethalin GR 2300 g ai/ha, Scotts Plus 2 125 Lb/A
[13] = 60 DAT in turf, Pendimethalin GR 2300 g ai/ha, Florasulam GR 15 g ai/ha, Scotts Plus 2 125 Lb/A
[14] = applications made at the preemergent herbicide application timing

Compound | Observed percent control (White Clover (TRFRE); [2]) [%] | Observed percent control (White Clover (TRFRE); [3]) [%] | Observed percent control (White Clover (TRFRE); [4]) [%] | Observed percent control (Dandelion (TAROF); [5]) [%] | Observed percent control (Dandelion (TAROF); [6]) [%] | Observed percent control (Dandelion (TAROF); [7]) [%] | Observed percent control (Dandelion (TAROF); [8]) [%] | Observed percent control (Dandelion (TAROF); [9]) [%] | Observed percent control (Dandelion (TAROF); [10]) [%] | Observed percent control (Dandelion (TAROF); [11]) [%] | Observed percent control (White Clover (TRFRE); [12]) [%] | Observed percent control (Dandelion (TAROF); [13]) [%] | Observed percent control [1] [%] | Control of white clover, in words (White Clover (TRFRE); [14]) | Control of dandelion, in words (Dandelion (TAROF); [14])
CSC(=O)c1c(C(F)F)nc(C(F)(F)F)c(C(=O)SC)c1CC(C)C [Dithiopyr, S,S′-dimethyl 2-(difluoromethyl)-4-(2-methylpropyl)-6-(trifluoromethyl)-3,5-pyridinedicarbothioate] | 0 | 0 | 0 | 0 | 29 | 21 | 21.7 | 27 | 0 | 19 |  |  |  |  | 
CCC(CC)Nc1c([N+](=O)[O-])cc(C)c(C)c1[N+](=O)[O-] [Pendimethalin, N-(1-ethylpropyl)-3,4-dimethyl-2,6-dinitrobenzenamine] |  |  |  |  |  |  |  |  |  |  | 0 | 21 | 0 |  | 
COc1ncc(F)c2nc(S(=O)(=O)Nc3c(F)cccc3F)nn12 [Florasulam, N-(2,6-difluorophenyl)-8-fluoro-5-methoxyl[1,2,4]triazolo[1,5-c]pyrimidine-2-sulfonamide] | 86.8 | 73 | 0 | 20 | 0 | 31 | 70 | 0 | 30 | 18 | 62.5 | 20.6 | 26.7 | effectively controls | effectively controls
